For test [1], the target named is Apolipoprotein L1 (Homo sapiens, UniProt O14791). The test is described as follows: Inhibition of APOL1 G1 variant in human HEK293-T-REx cells measured by Thallium assay. It is filed as cell-based.
The test system of test [2] is Trypanosoma brucei brucei. Briefly: Antitrypanosomal activity against Trypanosoma brucei brucei assessed as trypanosome lysis using recombinant APOL1 protein G1 variant and measured by Alamar blue based fluorescene assay. It is filed as functional, organism-based. On the technique in general: Resazurin is reduced to fluorescent resorufin, in cell work by metabolically active cells.

Where only a bound is given, the exact number is not on record here.

As usually defined, the IC50 is the point on the concentration scale where inhibition reaches its midpoint. For `Cc1ccc(-c2[nH]c3ccccc3c2CCC(=O)N[C@@H]2C(=O)NC[C@H]2O)cc1`, the IC50 in test [1] and in test [2] was less than 250 nM in each case.
As for `CC1C[C@H](NC(=O)CCc2c(-c3ccc(F)cc3)[nH]c3c(F)cc(F)cc23)C(=O)N1` (some centres not stated), the IC50 in test [1] and in test [2] was 250 nM each time.
`O=C(CCc1c(-c2ccc(C(F)(F)F)cc2)[nH]c2ccccc12)N[C@@H]1C(=O)NC[C@H]1O`: the half-maximal inhibitory concentration (IC50) in test [1] and in test [2] was less than 250 nM in each case.
As for `O=C(CCc1c(-c2ccccc2)[nH]c2c(F)c(F)ccc12)N[C@@H]1C(=O)NC[C@H]1O`, the concentration for half-maximal inhibition (IC50) in test [1] and in test [2] was less than 250 nM each time.
Consider `O=C(CCc1c(-c2ccc(F)cc2)[nH]c2ccc(O)cc12)N[C@H]1CCNC1=O`, for which the IC50 in test [1] and in test [2] was greater than 1000 nM throughout.
As to `O=C(CCc1c(-c2ccc(F)cc2)[nH]c2c(F)cccc12)N[C@H]1CCNC1=O`, the half-maximal inhibitory concentration (IC50) in test [1] and in test [2] was less than 250 nM each time.
`O=C(CCc1c(-c2ccc(F)cc2)[nH]c2c(F)cc(Br)cc12)N[C@H]1CCNC1=O`: the 50% inhibitory concentration (IC50) in test [1] and in test [2] was less than 250 nM in each case.
As to `Cc1c(F)c(F)cc2c(CCC(=O)N[C@@H]3C(=O)NC[C@H]3O)c(-c3ccccc3)[nH]c12`, the IC50 in test [1] and in test [2] was less than 250 nM in each case.
As for `O=C1C[C@@H](NC(=O)CCc2c(-c3ccc(F)cc3)[nH]c3c(F)cc(F)cc23)C(=O)N1`, the IC50 in test [1] and in test [2] was 250 nM in each case.
Take `O=C(CCc1c(-c2ccc(Cl)cc2)[nH]c2ccccc12)N[C@@H]1C(=O)NC[C@H]1O`: the concentration for half-maximal inhibition (IC50) in test [1] and in test [2] was less than 250 nM each time.
With `N#Cc1ccc(-c2[nH]c3ccccc3c2CCC(=O)N[C@@H]2C(=O)NC[C@H]2O)cc1`, the IC50 in test [1] and in test [2] was less than 250 nM throughout.
Consider `O=C(CCc1c(-c2ccccc2)[nH]c2c(Br)cccc12)N[C@@H]1C(=O)NC[C@H]1O`, for which the IC50 in test [1] and in test [2] was less than 250 nM in each case.
In the case of `O=C(CCc1c(-c2ccccc2)[nH]c2ccc(F)cc12)N[C@@H]1C(=O)NC[C@H]1O`, the IC50 in test [1] and in test [2] was less than 250 nM in each case.
For the molecule `O=C(CCc1c(-c2ccc(F)cc2)[nH]c2c(F)ccc(F)c12)N[C@H]1CCNC1=O`, the 50% inhibitory concentration (IC50) in test [1] and in test [2] was greater than 1000 nM throughout.
As for `O=C(CCc1c(-c2ccc(F)cc2)[nH]c2c(F)cccc12)N[C@@H]1C(=O)NC[C@H]1O`, the IC50 in test [1] and in test [2] was less than 250 nM in each case.
As to `O=C(CCc1c(-c2ccc(F)cc2)[nH]c2ccc(F)cc12)N[C@H]1CCNC1=O`, the half-inhibitory concentration (IC50) in test [1] and in test [2] was less than 250 nM each time.

(Values after ChEMBL document CHEMBL5052843, “Inhibitors of apol1 and methods of using same” (2020).)
